Results reported in US20050037983A1, “Compositions and methods for the treatment of depression and other affective disorders” (priority 2003, published 2005).
Where two headings read alike, the source gives them in different places.

How the values were obtained:
IL-6 = conditions: in vitro; cited from earlier work
cyclooxygenase = conditions: cited from earlier work
[1] = in vivo; cited from earlier work
[2] = system: subjects with DSM-IV major depression; assay: Human study: 36 subjects with DSM-IV major depression, three randomised groups, response rates; type: in vivo; conditions: Hamilton score greater than 20 at entry; Vioxx 30 mg/day; compared among three groups incl. placebo
Experimental: Thirty six (36) subjects with DSM-IV major depression and Hamilton score greater than 20 were recruited. Subjects were randomly allocated into each of three groups • 1. SSRI plus Vioxx 30 mg/day • 2. Vioxx, 30 mg/day • 3. Placebo All subjects have base line Il-6, IL-1 and cortisol levels assayed using specific assays. Biochemical assays are repeated at the end of weeks 1, 3 and 6. […] Response to treatment was associated with a drop in cortisol levels and pro-inflammatory cytokines.

[3] = system: subject with major depression; assay: Case reports: add-on anti-inflammatory in subjects with major depression, rated on 17 item Hamilton rating scale for depression (HAMD); type: in vivo, human; conditions: person
Experimental: A subject with a 4-5 month history of depression was used in this example. The subject's complaints included low mood, anhedonia, anxiety, poor concentration, significant initial insomnia, mild anorexia and weight loss of approximately 2 kilos. Symptoms were precipitated by problems both in the work and home environment. A diagnosis of major depression was made.
Over three weeks this was increased to 300 mg daily.
Rofecoxib 50 mg daily was added to the venlafaxine.
A subject with a long history of recurring depression was used in this example. The current episode was present for 3 months when initially seen. They were low in mood, tearful, irritable, very anxious and had significant sleep disturbance in the form of initial and delayed insomnia. There was no clear precipitant for their symptoms.
They had been taking venlafaxine for approximately 1 year at a maximum tolerated dose of 225 mg daily.

[4] = system: subjects treated with IFN-α; conditions: cited from earlier work; for IL-6 level compared with placebo: as early as four hours after a single dose
neutrophils = conditions: cited from earlier work
[5] = subjects treated with interferon alpha

C[C@@H](C(=O)O)c1ccc(-c2ccccc2)c(F)c1 [R-flurbiprofen]
potency of R-enantiomer versus S-enantiomer in down-regulating IL-6 levels (IL-6): significantly more potent | inhibition of cyclooxygenase activity (cyclooxygenase): does not inhibit cyclooxygenase activity | gastrointestinal mucosal damage [1]: does not cause gastrointestinal mucosal damage

CS(=O)(=O)c1ccc(C2=C(c3ccccc3)C(=O)OC2)cc1 [Rofecoxib]
response rates [2]: greater than that observed for placebo | HAMD score ([3]; baseline HAMD 22, Rofecoxib 50 mg daily added to venlafaxine 300 mg daily, after 1 week): 11 | time to improvement after commencing treatment ([3]; Rofecoxib 50 mg daily added to venlafaxine, subject's description): ≤ 5 days | clinical state at review ([3]; Rofecoxib added to venlafaxine, reviewed 2 weeks later): sustained

C[C@@H](C(=O)O)c1cccc(C(=O)c2ccccc2)c1 [ketoprofen, R-ketoprofen]
potency of R-enantiomer versus S-enantiomer in down-regulating IL-6 levels (IL-6): significantly more potent

CN(C)CCCC1(c2ccc(F)cc2)OCc2cc(C#N)ccc21 (stereo not drawn) [citalopram]
clinical response ([3]; citalopram 20 mg daily alone, after 5 weeks): no response

Fc1ccc([C@@H]2CCNC[C@H]2COc2ccc3c(c2)OCO3)cc1 [paroxetine]
impact in preventing depression [4, 5]: modest impact

CC(C)Cc1ccc(C(C)C(=O)O)cc1 (stereo not drawn) [Ibruprofen]
HAMD ([3]; baseline HAMD 20, 400 mg three times daily added to venlafaxine 225 mg daily, day 14): 8 | day of reported symptomatic improvement ([3]; 400 mg three times daily added to venlafaxine): ≤ 8 days

CC(C)Cc1ccc([C@@H](C)C(=O)O)cc1 [ibuprofen, R-ibuprofen]
potency of R-enantiomer versus S-enantiomer in down-regulating IL-6 levels (IL-6): significantly more potent

COc1ccc(C(CN(C)C)C2(O)CCCCC2)cc1 (stereo not drawn) [venlafaxine]
clinical improvement ([3]; venlafaxine 300 mg daily alone, after 4 weeks on this dose): No clinical improvement

IFN-α
IL-6 level compared with placebo [4]: significantly increased | IL-6 level compared with placebo ([4]; listed as IFN-alpha): significantly increases | subjects in whom major depression is reported [4, 5]: up to 40%

O=C(O)c1cc(/N=N/c2ccc(S(=O)(=O)Nc3ccccn3)cc2)ccc1O [sulfasalazine]
induction of apoptosis in neutrophils (neutrophils): capable of inducing apoptosis
